These results are taken from the supplement of paper PMC10307832.

Assay in all cases: relative viability (nuclei count vs DMSO), 5 days (fraction); higher = more cells survive
Compound in the test “Linsitinib + Trametinib”: C[C@]1(O)C[C@@H](c2nc(-c3ccc4ccc(-c5ccccc5)nc4c3)c3c(N)nccn32)C1 [Linsitinib] + CC(=O)Nc1cccc(-n2c(=O)n(C3CC3)c(=O)c3c(Nc4ccc(I)cc4F)n(C)c(=O)c(C)c32)c1 [Trametinib] (partner 0.02 µM)
In a few lines:
(§1)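 Lung cancer cell lines were seeded in 1536-well plates and dosed by pin tool the next day, with either a single drug or a fixed anchor-drug dose combined with five library-drug doses (not always all listed) spaced in √10 steps. Five days later, one step fixed the cells and stained their nuclei (final 0.05% Triton X-100, 1% formaldehyde, 1 ug/ml Hoechst), and nuclei were counted on 4× images. Relative viability is the nuclei count in treated wells divided by the count in vehicle wells, and each value is the median of duplicate plates.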

Compound in the test “Linsitinib + Luminespib”: C[C@]1(O)C[C@@H](c2nc(-c3ccc4ccc(-c5ccccc5)nc4c3)c3c(N)nccn32)C1 [Linsitinib] + CCNC(=O)c1noc(-c2cc(C(C)C)c(O)cc2O)c1-c1ccc(CN2CCOCC2)cc1 [Luminespib] (partner 0.01 µM)
A digest of the protocol:
as §1

Compound in the test “Ispinesib + Pemetrexed”: Cc1ccc(C(=O)N(CCCN)[C@@H](c2nc3cc(Cl)ccc3c(=O)n2Cc2ccccc2)C(C)C)cc1 [Ispinesib] + Nc1nc2[nH]cc(CCc3ccc(C(=O)N[C@@H](CCC(=O)O)C(=O)O)cc3)c2c(=O)[nH]1 [Pemetrexed] (partner 0.2 µM)
In a few lines: as §1

Compound in the test “Linsitinib + Vorinostat”: C[C@]1(O)C[C@@H](c2nc(-c3ccc4ccc(-c5ccccc5)nc4c3)c3c(N)nccn32)C1 [Linsitinib] + O=C(CCCCCCC(=O)Nc1ccccc1)NO [Vorinostat] (partner 1 µM)
A digest of the protocol:
as §1

Regarding UMC-11, the relative viability with Linsitinib + Trametinib (first compound 0.01 µM) came out at 0.72; in the test with Linsitinib + Trametinib (first compound 0.03162 µM), 0.76; with Linsitinib + Trametinib (first compound 0.1 µM) it was 0.7; with Linsitinib + Trametinib (first compound 0.3162 µM), 0.211; in the test with Linsitinib + Trametinib (first compound 1 µM), 0.471; with Linsitinib + Luminespib (first compound 0.01 µM) it was 1.04. Further, the relative viability came out at 0.717 in the test with Linsitinib + Luminespib (first compound 0.03162 µM); 0.992 in the test with Linsitinib + Luminespib (first compound 0.1 µM); 1.02 in the test with Linsitinib + Luminespib (first compound 1 µM); 0.844 with Ispinesib + Pemetrexed (first compound 0.001 µM); 0.829 in the test with Ispinesib + Pemetrexed (first compound 0.003162 µM); 0.868 in the test with Ispinesib + Pemetrexed (first compound 0.01 µM). Further, the relative viability with Ispinesib + Pemetrexed (first compound 0.03162 µM) was 0.451; with Ispinesib + Pemetrexed (first compound 0.1 µM), 0.235; with Linsitinib + Vorinostat (first compound 0.01 µM), 0.369; with Linsitinib + Vorinostat (first compound 0.03162 µM), 0.389; with Linsitinib + Vorinostat (first compound 0.1 µM), 0.357; with Linsitinib + Vorinostat (first compound 0.3162 µM) it was 0.217. Besides, the relative viability in the test with Linsitinib + Vorinostat (first compound 1 µM) stood at 0.386.
